Holding throughout (assay type): cell-based
The test system of series [1] is Chlamydia pneumonia. In words: Minimum inhibitory concentration (MIC) determination in Hep2 cells infected with Chlamydia pneumonia, inclusion bodies by fluorescent microscopy. Particulars: for antibacterial effects of the combination with azithromycin: MIC and MBC. As for the experimental part: (§1) Hep2 cells maintained in Isocove's Modified Dulbecco's Medium (IMDM) were infected with Chlamydia pneumonia (0.5 MOI for two hours after one hour centrifugation). Cells were then treated with Compound A (0, 5, 10, 20, 30 or 40 μg/ml) or Compound B (0, 5, 10, 20, 30 or 40 μg/ml) alone and/or in combination with azithromycin (Pfizer, Inc., New York, N.Y.) 0, 0.005, 0.0158, 0.050, 0.158, or 0.5 μg/ml). For minimum inhibitory concentration (MIC) determination, cells were terminated for analysis at 72 h after the addition of drugs. For minimum bacteriocidal concentration (MBC) determination, drugs were removed at 72 h post-treatment, the media was replaced, and cells were maintained for an additional 72 h before termination. At termination, cells were analyzed for quantitation of inclusion bodies using fluorescent microscopy, and general cell viability by microscopic visualization.

The test system of series [2] is Chlamydia pneumonia. The experiment in a line: Minimum bacteriocidal concentration (MBC) determination in Hep2 cells infected with Chlamydia pneumonia, drugs removed at 72 h, further 72 h. Particulars: for reduction of the MBC for azithromycin by the glycogen phosphorylase inhibitor: summary statement, combination with azithromycin. As for the experimental part: as §1

For another series, the system named is Hep2 cells. In words: General cell viability / host cell appearance by microscopic visualization. The protocol:
as §1

Setting [3] is: Chlamydia, 72 h, drug alone, 72 h after addition of drugs, read-out: MIC.
Where [4] appears, read: combined with 5 μg/ml Compound A.
The mark [5] stands for this setting: combined with 30 μg/ml Compound B.
Where [6] appears, read: Chlamydia, 72 h, drug alone, drugs removed at 72 h, additional 72 h, read-out: MBC.

Read-outs that look alike come from different tables or passages of the source.

This note sets out measurements from patent US20040082614A1, “Methods of treating infection using anitbiotics and glycogen phosphorylase inhibitors” (Pfizer Inc., priority 2002, published 2004).

Regarding `CC[C@H]1OC(=O)[C@H](C)[C@@H](O[C@H]2C[C@@](C)(OC)[C@@H](O)[C@H](C)O2)[C@H](C)[C@@H](O[C@@H]2O[C@H](C)C[C@H](N(C)C)[C@H]2O)[C@](C)(O)C[C@@H](C)CN(C)[C@H](C)[C@@H](O)[C@]1(C)O` [Azithromycin, 9a-aza-9a-methyl-9-deoxo-9a-homoerythromycin A], the MIC in the series with Chlamydia pneumonia [1] (setting [3]) was 0.158 µg/mL; in the series on Chlamydia pneumonia [1] (Chlamydia, combined with 5 μg/ml Compound A, read-out: azithromycin concentration required for MIC) it was 0.05 µg/mL; in the series with Chlamydia pneumonia [1] (Chlamydia, combined with 10 μg/ml Compound A, read-out: azithromycin concentration required for MIC), 0.0158 µg/mL; in the series with Chlamydia pneumonia [1] (Chlamydia, combined with 10 μg/ml Compound B, read-out: azithromycin concentration required for MIC), 0.05 µg/mL; with Chlamydia pneumonia [1] (Chlamydia, combined with 30 μg/ml Compound B, read-out: azithromycin concentration required for MIC), 0.0158 µg/mL. For the same compound, the “decrease in azithromycin concentration required for MIC” value in the series on Chlamydia pneumonia [1] (setting [4]) stood at 3 fold; in the series on Chlamydia pneumonia [1] (combined with 10 μg/ml Compound A), 10 fold; in the series on Chlamydia pneumonia [1] (combined with 10 μg/ml Compound B), 3 fold; with Chlamydia pneumonia [1] (setting [5]) it was 10 fold. Further, the MBC is 0.5 µg/mL with Chlamydia pneumonia [2] (setting [6]); 0.158 µg/mL in the series with Chlamydia pneumonia [2] (Chlamydia, combined with 5 μg/ml Compound A, read-out: azithromycin concentration required for MBC); 0.05 µg/mL in the series with Chlamydia pneumonia [2] (Chlamydia, combined with 20 μg/ml Compound A, read-out: azithromycin concentration required for MBC); 0.158 µg/mL in the series with Chlamydia pneumonia [2] (Chlamydia, combined with 30 μg/ml Compound B, read-out: azithromycin concentration required for MBC). Besides, the “decrease in azithromycin concentration required for MBC” value is given as 3 fold in the series with Chlamydia pneumonia [2] (setting [4]), 10 fold in the series with Chlamydia pneumonia [2] (combined with 20 μg/ml Compound A) and 3 fold in the series on Chlamydia pneumonia [2] (setting [5]).
Regarding `O=C(N[C@@H](Cc1ccccc1)[C@@H](O)C(=O)N1C[C@@H](O)[C@@H](O)C1)c1cc2cc(Cl)ccc2[nH]1` [Compound B], in the series with Chlamydia pneumonia [1], the “antibacterial effects of the combination with azithromycin” value is reported as “synergy of antibacterial effects”. Also, the MIC in the series with Chlamydia pneumonia [1] (drug alone, 72 h after addition of drugs) was greater than 40 µg/mL. The “changes in host cell appearance” value in the series with Hep2 cells is reported as “not associated with any changes in host cell appearance”. Besides, the MBC in the series with Chlamydia pneumonia [2] (drug alone, drugs removed at 72 h, additional 72 h) is greater than 40 µg/mL. Also, in the series with Chlamydia pneumonia [2], the “reduction of the MBC for azithromycin by the glycogen phosphorylase inhibitor” value is 3 fold.
As for `O=C(N[C@@H](Cc1ccc(F)cc1)C(=O)N1CCC(O)CC1)c1cc2cc(Cl)ccc2[nH]1` [Compound A, 5-chloro-1H-indole-2-carboxylic acid [(1S)-(4-fluoro-benzyl)-2-(4-hydroxypiperidin-1-yl)-2-oxo-ethyl]-amide], the MIC in the series with Chlamydia pneumonia [1] (setting [3]) was determined as 20 µg/mL. The “antibacterial effects of the combination with azithromycin” value in the series on Chlamydia pneumonia [1] was “synergy of antibacterial effects”. In addition, the “concentrations associated with changes in host cell appearance” value with Hep2 cells (Hep2 host cells) is no less than 30000 ng/mL. Besides, the MBC in the series with Chlamydia pneumonia [2] (setting [6]) is 30 µg/mL. For the same compound, the “reduction of the MBC for azithromycin by the glycogen phosphorylase inhibitor” value in the series with Chlamydia pneumonia [2] is recorded as 3-10 fold.
